Data published in patent publication US9850283B2, “Macrocyclic inhibitors of the PD-1/PD-L1 and CD80(B7-1)/PD-L1 protein/protein interactions” (BRISTOL-MYERS SQUIBB COMPANY, priority 2013, dated 2017).
Like-named read-outs stand apart in the source and are kept apart here. Positions of bridges follow the written chain, without caps; N, C: chain ends. Non-standard residues stand in square brackets, D forms with d. Residues, ends and D or L forms follow the SMILES beside them. Phe(3,4,5-F3) = N[C@@H](Cc1cc(F)c(F)c(F)c1)C(=O)O; Phe(2,4-Cl2) = N[C@@H](Cc1ccc(Cl)cc1Cl)C(=O)O; Pro(4R-NH2) = N[C@H]1CN[C@H](C(=O)O)C1; d(cisHyp) = O=C(O)[C@H]1C[C@@H](O)CN1; Hyp = O=C(O)[C@@H]1C[C@@H](O)CN1; NMeF = CN[C@@H](Cc1ccccc1)C(=O)O; dNMeE = CN[C@H](CCC(=O)O)C(=O)O; NMeNle = CCCC[C@H](NC)C(=O)O; NMeA = CN[C@@H](C)C(=O)O; Orn = NCCC[C@H](N)C(=O)O; Dab = NCC[C@H](N)C(=O)O

Experiments:
[1] = target: T1, Human PD-L1/PD-1 (Homo sapiens, UniProt Q9NZQ7); assay: HTRF PD-1-Ig/PD-L1-His binding assay (human PD-L1); conditions: cluster symbol; read-out: HTRF IC50 cluster
T1 construct: made in house; host or cells: HEK293T
Summary of the method: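 Interaction of Fc-tagged soluble PD-1 with His-tagged soluble PD-L1 is monitored by time-resolved FRET. Donor is europium cryptate anti-Ig (1 nM final) and acceptor is APC anti-His (20 nM final). Assay buffer is dPBS with 0.1% BSA and 0.05% Tween-20.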

[2] = target: T2, LK35.2-hPD-L1 cells / PE-labeled PD-1-Ig (Homo sapiens, UniProt Q9NZQ7); assay: LK35.2-hPD-L1 cell binding high-content screening assay; format: cell-based; conditions: cluster symbol, read-out: CBA IC50 cluster
T2 construct: expressed in transfected cells; host or cells: LK35.2 mouse B cell line
Summary of the method: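 Readout: high-content imaging of PE-PD-1-Ig bound to LK35.2-hPD-L1 cells. Cells plated overnight (RPMI/10% FCS); compound + 1 nM PE-PD-1-Ig, 1 h, 37 °C; 3× dPBS wash before imaging.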

[3] = cell binding assay, cell line not given
[4] = cell line of CBA not given (LK35.2-hPD-L1 or 293T-hPD-L1)

T2 sequence (Q9NZQ7 19-290): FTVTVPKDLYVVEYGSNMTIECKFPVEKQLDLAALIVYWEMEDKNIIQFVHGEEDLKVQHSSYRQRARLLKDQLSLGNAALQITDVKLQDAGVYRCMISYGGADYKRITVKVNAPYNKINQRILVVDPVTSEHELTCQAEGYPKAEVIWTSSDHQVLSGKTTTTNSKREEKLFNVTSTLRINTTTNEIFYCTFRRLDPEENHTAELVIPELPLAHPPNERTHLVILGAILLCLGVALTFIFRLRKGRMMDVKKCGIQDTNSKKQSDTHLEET
T1 sequence (Q9NZQ7 with tags, fused parts or gaps): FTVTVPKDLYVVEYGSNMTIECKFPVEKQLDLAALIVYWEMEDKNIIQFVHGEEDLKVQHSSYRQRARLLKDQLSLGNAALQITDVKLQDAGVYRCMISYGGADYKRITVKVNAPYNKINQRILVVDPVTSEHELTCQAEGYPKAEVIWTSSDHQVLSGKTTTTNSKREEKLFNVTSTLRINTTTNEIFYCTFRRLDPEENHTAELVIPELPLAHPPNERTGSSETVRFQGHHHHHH

SMILES | IC50 [1] [nM] | IC50 [2, 3] [nM] | IC50 [2, 4] [nM]
CCCCC1C(=O)N[C@@H](CCCNC(=N)N)C(=O)N[C@@H](CC(=O)O)C(=O)N[C@@H](C(C)C)C(=O)N(C)[C@@H](Cc2ccccc2)C(=O)N[C@@H](Cc2ccc(O)cc2)C(=O)N(C)CC(=O)N[C@@H](Cc2c[nH]c3ccccc23)C(=O)N[C@@H](Cc2ccc(O)cc2)C(=O)N[C@@H](CC(C)C)C(=O)N[C@H](C(=O)NCC(N)=O)CSCC(=O)N[C@@H](Cc2ccccc2)C(=O)N(C)[C@@H](Cc2ccccc2)C(=O)N1C (stereo partly drawn) [Example 3510] (HELM PEPTIDE1{[O=C(C[*:3])[*:2]].F.[meF].[CCCCC(C(=O)[*:2])N(C)[*:1]].R.D.V.[meF].Y.[Sar].W.Y.L.C.G.[am]}$PEPTIDE1,PEPTIDE1,1:R3-14:R3$$$V2.0) | > 30.5 | > 74.3 | –
CCCC[C@H]1C(=O)N(C)[C@@H](CCSC)C(=O)N[C@@H](C)C(=O)NC(C(=O)NCC(N)=O)CSCC(=O)N[C@@H](Cc2ccc(O)cc2)C(=O)N(C)[C@@H](C)C(=O)N[C@@H](CC(N)=O)C(=O)N2CCC[C@H]2C(=O)N[C@@H](CN)C(=O)N[C@@H](CC(C)C)C(=O)N2C[C@H](O)C[C@H]2C(=O)N[C@@H](Cc2c[nH]c3ccccc23)C(=O)N[C@@H](CO)C(=O)N[C@@H](Cc2c[nH]c3ccccc23)C(=O)N1C (stereo partly drawn) [Example 9087] | 0.385 to 6.74 | 0.158 to 4.71 | –
CCCC[C@H]1C(=O)N(C)[C@@H](CCCC)C(=O)N[C@@H](CCCNC(=N)N)C(=O)N[C@H](C(=O)NCC(N)=O)CSCC(=O)N[C@@H](Cc2ccc(Cl)cc2Cl)C(=O)N(C)[C@@H](C)C(=O)N[C@@H](CC(N)=O)C(=O)N2CCC[C@H]2C(=O)N[C@@H](Cc2cnc[nH]2)C(=O)N[C@@H](CC(C)C)C(=O)N2C[C@H](O)C[C@H]2C(=O)N[C@@H](Cc2c[nH]c3ccccc23)C(=O)N[C@@H](CO)C(=O)N[C@@H](Cc2c[nH]c3ccccc23)C(=O)N1C [Example 7062] ({CH2CO}-[Phe(2,4-Cl2)][NMeA]NPHL[Hyp]WSW[NMeNle][NMeNle]RCG-NH2; thioether N-14) | 0.385 to 6.74 | 4.78 to 72.9 | –

Other lines, results leading:

IC50 [1] [nM] | IC50 [2, 3] [nM] | IC50 [2, 4] [nM] | SMILES
0.385 to 6.74 | 0.158 to 4.71 | – | CCCC[C@H]1C(=O)N(C)[C@@H](CCCC)C(=O)N[C@@H](C)C(=O)N[C@H](C(=O)NCC(N)=O)CSCC(=O)N[C@@H](Cc2ccc(O)cc2)C(=O)N(C)[C@@H](C)C(=O)N[C@@H](CC(N)=O)C(=O)N2CCC[C@H]2C(=O)N[C@@H](Cc2cnc[nH]2)C(=O)N[C@@H](CCC(=O)O)C(=O)N2C[C@H](O)C[C@H]2C(=O)N[C@@H](Cc2c[nH]c3ccccc23)C(=O)N[C@@H](CCN)C(=O)N[C@@H](Cc2c[nH]c3ccccc23)C(=O)N1C [Example 5036] ({CH2CO}-Y[NMeA]NPHE[Hyp]W[Dab]W[NMeNle][NMeNle]ACG-NH2; thioether N-14)
0.385 to 6.74 | – | 0.158 to 4.71 | CCCC[C@H]1C(=O)N2C[C@H](O)C[C@@H]2C(=O)N2C[C@H](N)C[C@H]2C(=O)N[C@@H](C(C)C)C(=O)N(C)[C@@H](Cc2ccccc2)C(=O)N[C@@H](Cc2ccc(O)cc2)C(=O)N(C)[C@H](CCC(=O)O)C(=O)N[C@@H](Cc2c[nH]c3ccccc23)C(=O)N[C@@H](Cc2ccc(O)cc2)C(=O)N[C@@H](CC(C)C)C(=O)N[C@H](C(=O)NCC(N)=O)CSCC(=O)N[C@@H](Cc2cc(F)c(F)c(F)c2)C(=O)N(C)[C@@H](Cc2ccccc2)C(=O)N1C [Example 3197] ({CH2CO}-[Phe(3,4,5-F3)][NMeF][NMeNle][d(cisHyp)][Pro(4R-NH2)]V[NMeF]Y[dNMeE]WYLCG-NH2; thioether N-13)
0.385 to 6.74 | – | 0.158 to 4.71 | CCCC[C@H]1C(=O)N(C)[C@@H](CCCC)C(=O)N[C@@H](C)C(=O)N[C@H](C(N)=O)CSCC(=O)N[C@@H](Cc2ccc(O)cc2)C(=O)N(C)[C@@H](C)C(=O)N[C@@H](CC(=O)O)C(=O)N2CCC[C@H]2C(=O)N[C@@H](Cc2cnc[nH]2)C(=O)N[C@@H](CCCN)C(=O)N2C[C@H](O)C[C@H]2C(=O)N[C@@H](Cc2c[nH]c3ccccc23)C(=O)N[C@@H](CO)C(=O)N[C@@H](Cc2c[nH]c3ccccc23)C(=O)N1C [Example 1231] ({CH2CO}-Y[NMeA]DPH[Orn][Hyp]WSW[NMeNle][NMeNle]AC-NH2; thioether N-14)
